Assay results: USRE30241E, “Esters of 3-(hydroxy or hydroxymethyl)-4-hydroxyphenyl aminomethyl ketones” (Sterling Drug Inc., priority 1970, dated 1980)

Legend:
[1] = system: carbachol- or histamine-induced bronchoconstriction; experiment: Bronchodilator Test Method I, anesthetized dog, intravenous activity; type: in vivo; details: Canis lupus familiaris, read-out: Bronchodilatation; for inhibition in vivo at 0.07 mg/kg: 70 mcg/kg i.v.; for inhibition in vivo at 0.14 mg/kg: 140 mcg/kg i.v.; for inhibition in vivo at 0.28 mg/kg: 280 mcg/kg i.v.
Outline: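 Pentobarbital-anesthetized (30 mg/kg i.v.), open-chest, artificially ventilated dogs were given i.v. carbachol (4-6 µg/kg) or histamine diphosphate (35-45 µg/kg). Test compound was given i.v. mixed with, after, or 1-10 min before the constrictor.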

[2] = system: carbachol- or histamine-induced bronchoconstriction; experiment: Bronchodilator Test Method I, anesthetized dog, intraduodenal activity; type: in vivo; details: Canis lupus familiaris, read-out: Bronchodilation; for inhibition in vivo at 0.07 mg/kg: 70 mcg/kg (salt) intraduodenal; for inhibition in vivo at 0.14 mg/kg: 140 mcg/kg (salt) intraduodenal; for inhibition in vivo at 0.28 mg/kg: 280 mcg/kg (salt) intraduodenal
Outline: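 Pentobarbital-anesthetized (30 mg/kg i.v.) open-chest dogs of 9-18 kg, artificially ventilated; airway pressure recorded via tracheal cannula transducer. Test solution injected intraduodenally; from 5 min, i.v. carbachol (4-6 μg/kg) or histamine diphosphate (35-45 μg/kg) challenges every 30-60 min gauged degree and duration of bronchodilation.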

[3] = system: guinea pig bronchioles constricted by carbachol; experiment: Bronchodilator Test Method II, in vitro perfused guinea pig lung
Method: In this method bronchodilator activity in vitro was determined by testing the effect of graded doses of the test compounds on guinea pig bronchioles constricted by carbachol, using the technique reported by Sollman and von Oettingen, Proc. Soc, Exp. Biol. Med., 25,692 (1928) as modified by Tainter, Pedden, and James, J. Pharm. Exp. Ther., 51, 371 (1934) and by Luduena, von Euler, Tullar, and Lands, Arch. intern. Pharmacol., III, 392 (1957).

heart rate = experiment: Cardiovascular studies: effect on the heart rate in the anesthetized dog; type: in vivo
Outline: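 Anesthetized dogs, mostly spontaneously breathing, some open-chest, given rapid intravenous injections. Heart rate by electrocardiograph with blood pressure recorded simultaneously, every 0.5-1 minute for 10 minutes then every 2-5 minutes until recovery; several doses or compounds sometimes tested alternately in one dog.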

diastolic blood pressure = experiment: Effect on diastolic blood pressure in the anesthetized dog; type: in vivo
Method: The effect of a rapid intravenous injection on the heart rate the heart rate was conducted in anesthetized dogs under normal respiration. A few open-chest dogs were also tested. Increase in heart rate was measured by using an electrocardiograph attached to the dog. Readings were taken every 0.5-1 minute for the first 10 minutes and every 2-5 minutes thereafter until recovery. In some cases, several doses and more than one compound were tested alternately in the same dog. The blood pressure effect was simultaneously recorded.

[4] = Solubility and pH of salts; details: dimethyl sulfoxide, organic solvent or mixture

Molecule `Cc1ccc(C(=O)Oc2ccc(C(O)CNC(C)(C)C)cc2OC(=O)c2ccc(C)cc2)cc1` (stereo not drawn) [Example 30, 3,4-bis(p-toluyloxy)-alpha-(tert-butylaminomethyl)benzyl alcohol methanesulfonate] has an inhibition in vivo at 0.07 mg/kg ([1]; 5 min, 5 min) of 54%, an inhibition in vivo at 0.14 mg/kg ([1]; 5 min, 5 min) of 65% and an inhibition in vivo at 0.28 mg/kg ([1]; 5 min, 5 min) of 83%. It also gave an inhibition in vivo at 0.07 mg/kg ([1]; 0.5 h, 30 min) of 63%, an inhibition in vivo at 0.14 mg/kg ([1]; 0.5 h, 30 min) of 76% and an inhibition in vivo at 0.28 mg/kg ([1]; 0.5 h, 30 min) of 88%. The inhibition in vivo at 0.07 mg/kg ([1]; 1 h, 60 min) was 61%, the inhibition in vivo at 0.14 mg/kg ([1]; 1 h, 60 min) was 69% and the inhibition in vivo at 0.28 mg/kg ([1]; 1 h, 60 min) was 75%. For the same molecule, the inhibition in vivo at 0.07 mg/kg ([1]; 2 h, 120 min) was 52%, the inhibition in vivo at 0.14 mg/kg ([1]; 2 h, 120 min) was 55% and the inhibition in vivo at 0.28 mg/kg ([1]; 2 h, 120 min) was 72%. The inhibition in vivo at 0.14 mg/kg ([1]; 3 h, 180 min) was 62%, the inhibition in vivo at 0.28 mg/kg ([1]; 3 h, 180 min) was 64% and the inhibition in vivo at 0.07 mg/kg ([1]; 4 h, 240 min) was 37%. It also gave an inhibition in vivo at 0.28 mg/kg ([1]; 4 h, 240 min) of 50%, an inhibition in vivo at 0.14 mg/kg ([1]; 4.5 h, 270 min) of 42% and an inhibition in vivo at 0.07 mg/kg ([2]; 10 min, 10 min, mean of 3 dogs) of 38%. For the same molecule, the inhibition in vivo at 0.14 mg/kg ([2]; 10 min, 10 min) was 30%, the inhibition in vivo at 0.28 mg/kg ([2]; 10 min, 10 min) was 75% and the inhibition in vivo at 0.07 mg/kg ([2]; 0.5 h, 30 min) was 45%. The inhibition in vivo at 0.14 mg/kg ([2]; 0.5 h, 30 min) was 35%, the inhibition in vivo at 0.28 mg/kg ([2]; 0.5 h, 30 min) was 71% and the inhibition in vivo at 0.07 mg/kg ([2]; 1 h, 60 min) was 42%. The inhibition in vivo at 0.14 mg/kg ([2]; 1 h, 60 min) was 36%, the inhibition in vivo at 0.28 mg/kg ([2]; 1 h, 60 min, mean of 3 dogs) was 64% and the inhibition in vivo at 0.07 mg/kg ([2]; 2 h, 120 min, mean of 3 dogs) was 42%. For the same molecule, the inhibition in vivo at 0.14 mg/kg ([2]; 2 h, 120 min) was 45%, the inhibition in vivo at 0.28 mg/kg ([2]; 2 h, 120 min) was 56% and the inhibition in vivo at 0.07 mg/kg ([2]; 3 h, 180 min) was 42%. It also gave an inhibition in vivo at 0.14 mg/kg ([2]; 3 h, 180 min) of 40%, an inhibition in vivo at 0.28 mg/kg ([2]; 3 h, 180 min) of 50% and an inhibition in vivo at 0.07 mg/kg ([2]; 4 h, 240 min, mean of 3 dogs) of 25%. For the same molecule, the inhibition in vivo at 0.14 mg/kg ([2]; 4 h, 240 min) was 47%, the inhibition in vivo at 0.28 mg/kg ([2]; 4 h, 240 min, mean of 3 dogs) was 45% and the inhibition in vivo at 0.28 mg/kg ([2]; 5 h, 300 min, mean of 3 dogs) was 37%. The ED50 ([3]; carbachol (Doryl) 1:5 million) was 3.2 µg (base), the “Duration, Mean” value ([3]; dose 10 mcg (base)) was 60 ± 9.6 min and the “Mean Maximal Increase in the Heart Rate” value (heart rate; 70 mcg/kg (salt) i.v.) was 9%. For the same molecule, the “Mean Maximal Increase in the Heart Rate” value (heart rate; 140 mcg/kg (salt) i.v.) was 15%, the “Mean Maximal Increase in the Heart Rate” value (heart rate; 280 mcg/kg (salt) i.v.) was 28% and the “Mean Decrease in Diastolic Blood Pressure” value (shortened to “Mean Decrease”) (diastolic blood pressure; 70 meg/kg (salt) i.v.) was 2%. For the same molecule, the “Mean Decrease” value (diastolic blood pressure; 140 meg/kg (salt) i.v.) was 11%, the “Mean Decrease” value (diastolic blood pressure; 280 meg/kg (salt) i.v.) was 11.5% and the solubility [4] was ≥ 10000 µg/mL.
